Assay results: patent EP0767786B1, “7-ETHER-TAXOL ANALOGS, ANTINEOPLASTIC USE AND PHARMACEUTICAL COMPOSITIONS CONTAINING THEM” (PHARMACIA & UPJOHN COMPANY, priority 1994, dated 1996)
In brackets after ≈: the same amount, converted by molar mass. Like-named read-outs stand apart in the source and are kept apart here.

Assays:
[1] = system: L1210 mouse leukemia carcinoma cells; experiment: cytotoxicity / inhibition of cell proliferation in L1210 leukemia cells in culture; format: cell-based; details: drug concentration required to inhibit cell proliferation to 50% of that of untreated control cells; for IC50: Mus musculus, L1210, read-out: L1210 (IC50 ug/ml)
Excerpt: (§1) The biological activity of the 7-deoxy-7-ether-taxol compounds (Formula I) of the invention has been confirmed using well known procedures.
The biological activity of the compounds of this invention has been further confirmed using well known procedures against L1210 leukemia and the results set forth in Table I. The results were obtained using standard well known procedure (Li, L.H.; Kuentzel, S.L.; Murch, L.L.; Pschigoga, L.M.; and W.C. Krueger, "Comparative biological and biochemical effects of nogalamycin and its analogs on L1210 leukemia," Cancer Res. 39:4816-4822 (1979)). The results are expressed as an IC50 which is the drug concentration required to inhibit cell proliferation to 50% of that of untreated control cells. Lower numbers indicated greater activity.

[2] = system: A2780 human ovarian carcinoma; experiment: activity against A2780 human ovarian carcinoma cells; format: cell-based; details: for IC50: read-out: A2780 (IC50 ug/ml)
Excerpt: The biological activity of the compounds of this invention has been further confirmed using well known procedures against A2780 human ovarian carcinoma and the results set forth in Table II. The results were obtained using standard well known procedure (Perez, R. P.; O'Dwyer, P. J.; Handel, L. M.; Ozols, R. F.; Hamilton, T. C. Int. J. Cancer 1991, 48, 265, Alley, M.C.; Scudiero, D. A.; Monks, A.; Hursey, M. L; Czerwinski, M. J.; Fine, D. L.; et al. Cancer Res 1988, 48, 589).

tubulin = experiment: in vitro tubulin polymerization assay (after Gaskin et al.); format: biochemical; details: in vitro at 20°C, compared with taxol
Excerpt: as §1

[3] = system: L1210 mouse leukemia carcinoma cells; experiment: cytotoxicity / inhibition of cell proliferation in L1210 leukemia cells in culture; format: cell-based

Compound	L1210 (IC50 ug/ml) [1]	A2780 (IC50 ug/ml) [2]	further results
7-[O-(2,2,2-trichloroethoxy)methoxymethyl]-13-(N-Boc-β-phenyl isoserinyl)-baccatin III [Compound 22]	0.0047 µg/mL		
7-[O-(2,2,2-trichloroethoxy)methyl]-13-(N-Boc-β-phenyl isoserinyl)-baccatin III [Compound 21]	0.0024 µg/mL		
13-(N-Boc-2'-TES-b-phenyl isoserinyl)-baccatin III 7-O-methyl ether [Compound 58]		0.00038 µg/mL	
CCOCOC1CC2OCC2(OC(C)=O)C2C(OC(=O)c3ccccc3)C3(O)CC(OC(=O)C(O)C(NC(=O)OC(C)(C)C)c4ccccc4)C(C)=C(C(OC(C)=O)C(=O)C12C)C3(C)C (stereo not drawn) [Compound 4, 7-(O-ethoxymethyl)-13-(N-Boc-β-phenylisoserinyl)-baccatin III]		0.0007 µg/mL	induce tubulin polymerization in vitro (tubulin): able to induce tubulin polymerization in vitro at 20 °C in a manner very similar to taxol
COCCOCOC1CC2OCC2(OC(C)=O)C2C(OC(=O)c3ccccc3)C3(O)CC(OC(=O)C(O)C(NC(=O)OC(C)(C)C)c4ccccc4)C(C)=C(C(OC(C)=O)C(=O)C12C)C3(C)C (stereo not drawn) [Compound 6, 7-(O-methoxyethoxymethyl)-13-(N-Boc-β-phenylisoserinyl)-baccatin III]	0.0023 µg/mL		
COCOC1CC2OCC2(OC(C)=O)C2C(OC(=O)c3ccccc3)C3(O)CC(OC(=O)C(O)C(NC(=O)OC(C)(C)C)c4ccccc4)C(C)=C(C(OC(C)=O)C(=O)C12C)C3(C)C (stereo not drawn) [Compound 8, 7-(O-methoxymethyl)-13-(N-Boc-2'-β-phenylisoserinyl)-baccatin III]	0.0011 µg/mL		IC90 (90% growth inhibitory concentration) [3]: 0.0011 micrograms/ml
CC(=O)OC1C(=O)C2(C)C(OCOCc3ccccc3)CC3OCC3(OC(C)=O)C2C(OC(=O)c2ccccc2)C2(O)CC(OC(=O)C(O)C(NC(=O)OC(C)(C)C)c3ccccc3)C(C)=C1C2(C)C (stereo not drawn) [Compound 10, 7-(O-benzyloxymethyl)-13-(N-Boc-β-phenylisoserinyl)-baccatin III]	0.001 µg/mL		
CCOCOC1CC2OCC2(OC(C)=O)C2C(OC(=O)c3ccccc3)C3(O)CC(OC(=O)C(O)C(NC(=O)NC(C)(C)C)c4ccccc4)C(C)=C(C(OC(C)=O)C(=O)C12C)C3(C)C (stereo not drawn) [Compound 14, 7-(O-ethoxymethyl)-13-(N-(t-butylaminocarbonyl)-β-phenylisoserinyl)-baccatin III]	0.0014 µg/mL	0.00007 µg/mL	
COCOC1CC2OCC2(OC(C)=O)C2C(OC(=O)c3ccccc3)C3(O)CC(OC(=O)C(O)C(NC(=O)NC(C)(C)C)c4ccccc4)C(C)=C(C(OC(C)=O)C(=O)C12C)C3(C)C (stereo not drawn) [Compound 27, 7-(O-methoxymethyl)-13-(N-(t-butylaminocarbonyl)-β-phenylisoserinyl)-baccatin III]		0.00004 µg/mL	induce tubulin polymerization in vitro (tubulin): able to induce tubulin polymerization in vitro at 20 °C in a manner very similar to taxol
CSCOC1CC2OCC2(OC(C)=O)C2C(OC(=O)c3ccccc3)C3(O)CC(OC(=O)C(O)C(NC(=O)c4ccccc4)c4ccccc4)C(C)=C(C(OC(C)=O)C(=O)C12C)C3(C)C (centres unmarked) [Compound 42, 7-(O-methylthiomethyl) taxol]		0.00047 µg/mL	
CSCOC1CC2OCC2(OC(C)=O)C2C(OC(=O)c3ccccc3)C3(O)CC(OC(=O)C(O)C(NC(=O)OC(C)(C)C)c4ccccc4)C(C)=C(C(OC(C)=O)C(=O)C12C)C3(C)C (stereo not drawn) [Compound 44, 7-(O-methylthiomethyl)-13-(N-Boc-β-phenylisoserinyl)-baccatin III]		0.00037 µg/mL	
CC(=O)OC1C(=O)C2(C)C(OCSc3ccccc3)CC3OCC3(OC(C)=O)C2C(OC(=O)c2ccccc2)C2(O)CC(OC(=O)C(O)C(NC(=O)c3ccccc3)c3ccccc3)C(C)=C1C2(C)C (centres unmarked) [Compound 46, 7-(O-phenylthiomethyl) taxol]		0.0016 µg/mL	
COC1CC2OCC2(OC(C)=O)C2C(OC(=O)c3ccccc3)C3(O)CC(OC(=O)C(O)C(NC(=O)c4ccccc4)c4ccccc4)C(C)=C(C(OC(C)=O)C(=O)C12C)C3(C)C (centres unmarked) [Compound 47, 7-O-methyl Taxol]		0.0007 µg/mL	A2780 (IC50 ug/ml) ([2]; retest): 0.00044 µg/mL
CCSC(C)OC1CC2OCC2(OC(C)=O)C2C(OC(=O)c3ccccc3)C3(O)CC(OC(=O)C(O)C(NC(=O)c4ccccc4)c4ccccc4)C(C)=C(C(OC(C)=O)C(=O)C12C)C3(C)C (centres unmarked) [Compound 49, 7-[O-ethyl(1-thioethyl)] Taxol]		0.0057 µg/mL	
CSCOC1CC2OCC2(OC(C)=O)C2C(OC(=O)c3ccccc3)C3(O)CC(OC(=O)C(O)C(NC(=O)NC(C)(C)C)c4ccccc4)C(C)=C(C(OC(C)=O)C(=O)C12C)C3(C)C (centres unmarked) [Compound 55, 13-(N-(t-butylaminocarbonyl)-b-phenylisoserinyl)-baccatin III 7-O-methylthiomethyl ether]		0.00025 µg/mL	
COC1CC2OCC2(OC(C)=O)C2C(OC(=O)c3ccccc3)C3(O)CC(OC(=O)C(O)C(NC(=O)NC(C)(C)C)c4ccccc4)C(C)=C(C(OC(C)=O)C(=O)C12C)C3(C)C (centres unmarked) [Compound 56, 13-(N-(t-butylaminocarbonyl)-b-phenylisoserinyl)-baccatin III 7-O-methyl ether]		0.00034 µg/mL	
CC(=O)O[C@H]1C(=O)[C@@]2(C)[C@H]([C@H](OC(=O)c3ccccc3)[C@]3(O)C[C@H](OC(=O)[C@H](O)[C@@H](NC(=O)c4ccccc4)c4ccccc4)C(C)=C1C3(C)C)[C@]1(OC(C)=O)CO[C@@H]1C[C@@H]2O [taxol, Taxol]			IC50 [1]: 0.017 µg/mL (≈ 19.9 nM); IC50 [2]: 0.0018 µg/mL (≈ 2.11 nM); IC90 ([3]; read-out: IC90 (90% growth inhibitory concentration)): 17 ng/mL (≈ 19.9 nM)
CC(=O)O[C@@]12CO[C@@H]1C[C@H](O)[C@@]1(C)C(=O)[C@H](O)C3=C(C)[C@@H](OC(=O)[C@H](O)[C@@H](NC(=O)OC(C)(C)C)c4ccccc4)C[C@@](O)([C@@H](OC(=O)c4ccccc4)[C@H]21)C3(C)C [taxotere, reference compound]			IC50 [1]: 0.004 µg/mL (≈ 4.95 nM); IC50 [2]: 0.0007 µg/mL (≈ 0.866 nM)
